Data as given in PubChem BioAssay (NCI).
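Exposure lasted 48 hours, with cells grown in 96-well plates and compounds tested at five concentrations. GI50: concentration for 50% inhibition of growth. TGI: total growth inhibition.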

Columns and labels:
Assay in all cases: DTP human tumour cell line panel, 48 h
M14 melanoma = test system: M14 melanoma
NCI-H460 lung = test system: NCI-H460 lung
T-47D breast = test system: T-47D breast
SN12C renal = test system: SN12C renal
RPMI-8226 leukemia = test system: RPMI-8226 leukemia
786-0 renal = test system: 786-0 renal
PC-3 prostate = test system: PC-3 prostate
BT-549 breast = test system: BT-549 breast
IGROV1 ovarian = test system: IGROV1 ovarian
HL-60(TB) leukemia = test system: HL-60(TB) leukemia
OVCAR-5 ovarian = test system: OVCAR-5 ovarian

SMILES | TGI (M14 melanoma) [µM] | TGI (NCI-H460 lung) [µM] | TGI (T-47D breast) [µM] | TGI (SN12C renal) [µM] | TGI (RPMI-8226 leukemia) [µM] | TGI (786-0 renal) [µM] | TGI (PC-3 prostate) [µM] | TGI (BT-549 breast) [µM] | TGI (IGROV1 ovarian) [µM] | TGI (HL-60(TB) leukemia) [µM] | TGI (OVCAR-5 ovarian) [µM] | GI50 (M14 melanoma) [µM] | GI50 (NCI-H460 lung) [µM] | GI50 (T-47D breast) [µM] | GI50 (SN12C renal) [µM] | GI50 (RPMI-8226 leukemia) [µM] | GI50 (PC-3 prostate) [µM] | GI50 (BT-549 breast) [µM] | GI50 (IGROV1 ovarian) [µM] | GI50 (HL-60(TB) leukemia) [µM]
CCOc1ccc2c(c1)NC(=O)C(C1OC(c3ccccc3)=CC1=O)S2 (configuration not stated) | > 100 | 39 | 36.3 | 77.9 | 30.5 | 80.5 | 51.4 | 65.9 | 53.2 | > 100 | 36.5 |  |  |  |  |  |  |  |  | 
C[n+]1c(-c2ccc(/C=N\NC(=O)c3ccc(C(=O)N/N=C/c4ccc(-c5cn6ccsc6[n+]5C)cc4)cc3)cc2)cn2ccsc21 | 44.9 | 42.1 |  | 43.8 | 55 | 36.8 | 41.1 | 42.7 | 40.7 | 43.8 | 36.3 |  |  |  |  |  |  |  |  | 
CCOc1cc(NC(C)=O)ccc1C(=O)NN1C(=O)CSC1c1ccc(O)c(OC)c1 (configuration not stated) | > 100 | > 100 | > 100 | > 100 | > 100 | > 100 | > 100 | 98.6 | > 100 | > 100 | > 100 |  |  |  |  |  |  |  |  | 
O=C(CCO)OCCCCCC/C=C\CCCCCC/C=C\CCCCCCCCOC(=O)CCO | 30.9 | 31.4 | 35.9 | 31 |  | 32.5 | 30.8 | 33.1 | 31.2 | 32.1 | 32.3 |  |  |  |  |  |  |  |  | 
OC1(c2ccc3ccccc3c2)c2ccc3ccccc3c2C2=NCCN21 (configuration not stated) | > 100 | > 100 | > 100 | > 100 | > 100 | 69.3 | > 100 | > 100 | > 100 | > 100 | > 100 |  |  |  |  |  |  |  |  | 
Cc1ccc(S(=O)(=O)NCCSS(=O)(=O)c2ccc(C)cc2)cc1 |  | > 100 | 53.9 | 86.3 |  |  | 94.8 |  |  |  |  |  |  |  |  |  |  |  |  | 
CCCc1ccc(OCC(=O)N/N=C/c2c(-c3ccccc3)[nH]c3ccccc23)cc1 | 28.2 | 22.7 | 52.4 | 32.1 | 30.7 | 35.7 | 29.4 | 34 | 65.8 | 23.8 | 58.6 |  |  |  |  |  |  |  |  | 
CS(=O)(=O)OCc1c(O)c2c(c(O)c1COS(C)(=O)=O)C(=O)C=CC2=O | > 100 |  |  | > 100 | > 100 |  |  |  | > 100 | > 100 | > 100 |  |  |  |  |  |  |  |  | 
CCCC(=O)OCC(O)CO (configuration not stated) | > 5000 | > 5000 |  | > 5000 | > 5000 | > 5000 |  |  | > 5000 | > 5000 | 4700 |  |  |  |  |  |  |  |  | 
NC(N)=N/N=C/c1ccc(O)c(C(=O)O)c1 | > 100 | > 100 | > 100 |  | > 100 | > 100 | > 100 | > 100 | > 100 |  | > 100 |  |  |  |  |  |  |  |  | 
Oc1ccc2ccccc2c1Cc1c(O)ccc2ccccc12 | 34.9 | > 100 | 56.4 | 34.6 | 40.4 | 41.7 | 35.1 | 33.6 | 13.4 | 38.7 | 33.2 |  |  |  |  |  |  |  |  | 
NC1=NS(=O)(=O)Nc2nc(-c3cccs3)[nH]c21 | > 100 | > 100 |  | > 100 | > 100 | > 100 |  |  | > 100 | > 100 | > 100 |  |  |  |  |  |  |  |  | 
COc1ccc(-n2cc(-c3ccc(OC)c(OC)c3)nc2SCc2ccccc2)cc1Cl | > 100 | > 100 | > 100 | > 100 | 20 |  | > 100 | 42.5 | > 100 | 37.7 |  | 26 | 25.5 | 9.45 | 38.1 | 4.38 | 13.8 | 14.9 | 12.9 | 12.9
C[C@]12CC[C@H](O)CC1=CC[C@@H]1[C@@H]2CC[C@]2(C)C(=O)CC[C@@H]12 | > 100 |  | > 100 | > 100 | > 100 | > 100 | > 100 | > 100 |  |  | > 100 |  |  |  |  |  |  |  |  | 
C=CCC1=CC2(OC)C(=O)C(OC)(OC)C1C1C(OC)(OC)C(=O)C(OC)=CC12CC=C (configuration not stated) | > 100 | > 100 | > 100 | > 100 | > 100 | > 100 | > 100 | > 100 | > 100 | > 100 | > 100 |  |  |  |  |  |  |  |  | 
FC(F)(F)C1=NC(=NNc2nnc(-c3ccccc3)c(-c3ccccc3)n2)N=C(C(F)(F)F)C1 |  | > 100 |  | > 100 | > 100 |  |  |  | > 100 | 37.1 | > 100 |  |  |  |  |  |  |  |  | 
CCCCOc1ccc(S(=O)(=O)/N=C(\NN)Nc2ccc(Cl)cc2)cc1 | 56.9 | 31.9 | 46.2 | 38.6 | > 100 | 31 | 33.1 | > 100 | 60.2 | > 100 | 52.9 |  |  |  |  |  |  |  |  | 
ClCC1(CCl)COC1 | > 100 | > 100 | > 100 | > 100 |  |  | > 100 |  |  | > 100 |  |  |  |  |  |  |  |  |  | 
O=c1cc(-c2nc3ccccc3[nH]2)[nH]c2nc(-c3nc4ccccc4[nH]3)cc(-c3ccc(Cl)cc3)c12 | 62.5 | 43.6 | 83.5 | 46.9 | 44 |  | > 100 | > 100 | 25.5 | 66.3 | 54.3 |  |  |  |  |  |  |  |  | 
CC[N+](CC)(CC)/C(=N/S(=O)(=O)c1cc(C)c(Cl)cc1S)[N-]S(=O)(=O)c1ccc(Cl)cc1 | > 100 | > 100 | > 100 |  | > 100 | > 100 | > 100 |  | > 100 | > 100 | > 100 |  |  |  |  |  |  |  |  | 
Cc1onc(-c2c(F)cccc2Cl)c1C(=O)N[C@@H]1C(=O)N2[C@@H]1SC(C)(C)[C@@H]2C(=O)O | > 100 | > 100 | > 100 | > 100 | > 100 | > 100 | > 100 | > 100 | > 100 |  | > 100 |  |  |  |  |  |  |  |  | 
Cc1cc(-c2nc3cc(F)ccc3s2)ccc1NC(=O)C(C)N (configuration not stated) | 9.74 | 5.98 | 6.35 | 9.49 | 16.9 | 7.2 | 8.71 | 8.49 | 4.76 | 1.34 | 5.52 |  |  |  |  |  |  |  |  | 
COc1cc(NCc2ccc3n2-c2ccccc2OC3)cc(OC)c1OC | > 100 | > 100 | > 100 | 45.5 | 26.9 | > 100 | 87.1 | 67.3 | 70.5 | 57.2 | > 100 |  |  |  |  |  |  |  |  | 
COc1c2ccoc2c(S(=O)(=O)Nc2ccc(Cl)cc2)c2oc(C)cc(=O)c12 |  | > 100 |  | > 100 | > 100 |  |  |  | > 100 | > 31.6 | > 100 |  |  |  |  |  |  |  |  | 
